Assay results from US20260014147A1, “STAT6 DEGRADERS” (Gilead Sciences, Inc., priority 2024, published 2026).

biological target: T1, STAT6 (endogenous, HiBiT-tagged) in HeLa LgBiT clone 4.14 cells (Homo sapiens, UniProt P42226); experiment: STAT6 Degrader Assay (HiBiT based, HeLa LgBiT clone 4.14 cells, luminescence, DC50); type: cell-based; conditions: DC50 provided for test compounds with >80% Emax, geometric mean, read-out: STAT6 degradation DC50
T1 construct: These cells express endogenous STAT6; host or cells: HeLa LgBiT clone 4.14
T1 sequence (P42226 1-847): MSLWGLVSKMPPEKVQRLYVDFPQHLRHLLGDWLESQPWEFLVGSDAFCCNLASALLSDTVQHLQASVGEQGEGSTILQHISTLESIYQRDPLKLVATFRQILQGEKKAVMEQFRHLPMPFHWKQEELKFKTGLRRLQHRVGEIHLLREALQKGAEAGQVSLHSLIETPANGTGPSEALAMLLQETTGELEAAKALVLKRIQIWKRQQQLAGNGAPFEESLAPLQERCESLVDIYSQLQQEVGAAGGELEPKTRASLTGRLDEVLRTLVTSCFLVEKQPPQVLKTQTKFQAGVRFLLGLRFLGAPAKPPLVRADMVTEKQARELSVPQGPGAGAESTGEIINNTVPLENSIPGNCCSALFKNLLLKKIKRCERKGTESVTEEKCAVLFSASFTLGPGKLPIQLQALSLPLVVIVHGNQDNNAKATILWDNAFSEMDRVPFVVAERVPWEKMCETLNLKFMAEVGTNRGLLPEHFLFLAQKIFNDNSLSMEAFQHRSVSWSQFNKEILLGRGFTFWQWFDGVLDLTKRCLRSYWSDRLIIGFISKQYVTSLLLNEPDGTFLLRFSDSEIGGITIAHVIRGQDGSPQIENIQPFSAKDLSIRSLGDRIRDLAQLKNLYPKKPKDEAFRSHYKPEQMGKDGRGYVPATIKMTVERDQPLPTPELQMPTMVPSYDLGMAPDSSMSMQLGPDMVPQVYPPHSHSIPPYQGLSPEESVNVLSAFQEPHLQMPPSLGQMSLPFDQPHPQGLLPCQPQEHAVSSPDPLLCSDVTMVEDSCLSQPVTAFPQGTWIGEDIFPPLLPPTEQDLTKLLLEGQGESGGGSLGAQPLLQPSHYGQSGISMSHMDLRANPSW
Method in brief: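 HeLa LgBiT clone 4.14 cells carry CRISPR-inserted HiBiT on endogenous STAT6; 5000 cells/well were exposed to compound for 4-24 h at 37 °C, 5% CO2. Nano-Glo substrate added for 0.5 h; luminescence reflects remaining STAT6, with terfenadine ([…]) wells defining 100% degradation.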

SMILES	DC50
Cn1c(CN2CCC(c3ccc(C(=O)N4CCC(CN5CCN(c6ncc(NC7CCC(=O)NC7=O)cn6)CC5)CC4)cc3)CC2)cc2c(-c3ccc4[nH]ncc4c3)ccnc21 (stereo not shown) [Example 2k1, 3-((2-(4-((1-(4-(1-((4-(1H-indazol-5-yl)-1-methyl-1H-pyrrolo[2,3-b]pyridin-2-yl)methyl)-piperidin-4-yl)benzoyl)piperidin-4-yl)methyl)piperazin-1-yl)pyrimidin-5-yl)amino)piperidine-2,6-dione]	28.8 nM
Cn1c(CN2CCC(c3ccc(C(=O)N4CCC(CN5CCN(c6ccc(NC7CCC(=O)NC7=O)cn6)CC5)CC4)cc3)CC2)cc2c(-c3ccc4[nH]ncc4c3)ccnc21 (stereo not shown) [Example 2n1, 3-((6-(4-((1-(4-(1-((4-(1H-indazol-5-yl)-1-methyl-1H-pyrrolo[2,3-b]pyridin-2-yl)methyl)piperidin-4-yl)benzoyl)piperidin-4-yl)methyl)piperazin-1-yl)pyridin-3-yl)amino)piperidine-2,6-dione]	15.2 nM
Cn1c(CN2CCC(c3ccc(C(=O)N4CCC(CN5CCN(c6ccc(NC7CCC(=O)NC7=O)c(F)n6)CC5)CC4)cc3)CC2)cc2c(-c3ccc4[nH]ncc4c3)ccnc21 (stereo not shown) [Example 2n2, 3-((6-(4-((1-(4-(1-((4-(1H-indazol-5-yl)-1-methyl-1H-pyrrolo[2,3-b]pyridin-2-yl)methyl)-piperidin-4-yl)benzoyl)piperidin-4-yl)methyl)piperazin-1-yl)-2-fluoropyridin-3-yl)amino)piperidine-2,6-dione]	28.6 nM
COCc1nc2cc(-c3ccnc4c3cc(CN3CCC(c5ccc(C(=O)N6CCC(CN7CCN(c8ccc(NC9CCC(=O)NC9=O)c(F)n8)CC7)CC6)cc5)CC3)n4C)ccc2[nH]1 (stereo not shown) [Example 2n3, 3-((2-fluoro-6-(4-((1-(4-(1-((4-(2-(methoxymethyl)-1H-benzo[d]imidazol-5-yl)-1-methyl-1H-pyrrolo[2,3-b]pyridin-2-yl)methyl)piperidin-4-yl)benzoyl)piperidin-4-yl)methyl)piperazin-1-yl)pyridin-3-yl)amino)piperidine-2,6-dione]	19.8 nM

The next lines start with the values.

DC50	SMILES
34 nM	COCc1nc2cc(-c3ccnc4c3cc([C@H](C)N3CCC(c5ccc(C(=O)N6CCC(CN7CCN(c8ccc(NC9CCC(=O)NC9=O)cc8C(F)(F)F)CC7)CC6)cc5)CC3)n4C)ccc2[nH]1 (stereo partly drawn) [Example 2i5, 3-((4-(4-((1-(4-(1-((S)-1-(4-(2-(methoxymethyl)-1H-benzo[d]imidazol-5-yl)-1-methyl-1H-pyrrolo[2,3-b]pyridin-2-yl)ethyl)piperidin-4-yl)benzoyl)piperidin-4-yl)methyl)piperazin-1-yl)-3-(trifluoromethyl)phenyl)amino)piperidine-2,6-dione]
23.5 nM	COCc1nc2cc(-c3ccnc4c3cc([C@H](C)N3CCC(c5ccc(C(=O)N6CCC(CN7CCC(c8ccc(NC9CCC(=O)NC9=O)cc8F)C(F)(F)C7)CC6)cc5)CC3)n4C)ccc2[nH]1 (stereo partly drawn) [Example 2m3, 3-((4-(3,3-difluoro-1-((1-(4-(1-((S)-1-(4-(2-(methoxymethyl)-1H-benzo[d]imidazol-5-yl)-1-methyl-1H-pyrrolo[2,3-b]pyridin-2-yl)ethyl)piperidin-4-yl)benzoyl)piperidin-4-yl)methyl)piperidin-4-yl)-3-fluorophenyl)amino)piperidine-2,6-dione]
11.7 nM	COCc1nc2cc(-c3ccnc4c3cc(CN3CCC(c5ccc(C(=O)N6CCC(CN7CCN(c8ncc(NC9CCC(=O)NC9=O)cc8F)CC7)CC6)cc5)CC3)n4C)ccc2[nH]1 (stereo not shown) [Example 2n6, 3-((5-fluoro-6-(4-((1-(4-(1-((4-(2-(methoxymethyl)-1H-benzo[d]imidazol-5-yl)-1-methyl-1H-pyrrolo[2,3-b]pyridin-2-yl)methyl)piperidin-4-yl)benzoyl)piperidin-4-yl)methyl)piperazin-1-yl)pyridin-3-yl)amino)piperidine-2,6-dione]

same assay, conditions: Emax provided for test compounds with <80% Emax (and 2c15), geometric mean, read-out: STAT6 degradation Emax

SMILES	Emax
C[C@@H](c1cc2c(-c3ccc(N)nc3)ccnc2n1C)N1CCC(c2ccc(C(=O)N3CCC(CN4CCN(c5ccc(NC6CCC(=O)NC6=O)cc5C(F)(F)F)CC4)CC3)cc2)CC1 (stereo partly drawn) [Example 2i7, 3-((4-(4-((1-(4-(1-((S)-1-(4-(6-aminopyridin-3-yl)-1-methyl-1H-pyrrolo[2,3-b]pyridin-2-yl)-ethyl)-piperidin-4-yl)benzoyl)piperidin-4-yl)methyl)piperazin-1-yl)-3-(trifluoromethyl)phenyl)amino)-piperidine-2,6-dione]	40 to 50%
CN(C(=O)c1ccc(C2CCN(Cc3cc4c(-c5ccc6[nH]ncc6c5)ccnc4n3C)CC2)cc1)c1ccc(C2CCN(c3ccc(NC4CCC(=O)NC4=O)cc3F)CC2)cc1 (stereo not shown) [Example 2j1, 4-(1-((4-(1H-indazol-5-yl)-1-methyl-1H-pyrrolo[2,3-b]pyridin-2-yl)methyl)piperidin-4-yl)-N-(4-(1-(4-((2,6-dioxopiperidin-3-yl)amino)-2-fluorophenyl)piperidin-4-yl)phenyl)-N-methylbenzamide]	70 to 80%
CN(C(=O)c1ccc(C2CCN(Cc3cc4c(-c5ccc6[nH]ncc6c5)ccnc4n3C)CC2)cc1)c1ccc(C2CCN(c3ccc(NC4CCC(=O)NC4=O)cc3)CC2)cc1 (stereo not shown) [Example 2j2, 4-(1-((4-(1H-indazol-5-yl)-1-methyl-1H-pyrrolo[2,3-b]pyridin-2-yl)methyl)piperidin-4-yl)-N-(4-(1-(4-((2,6-dioxopiperidin-3-yl)amino)phenyl)piperidin-4-yl)phenyl)-N-methylbenzamide]	40 to 50%
Cn1c(CN2CCC(c3ccc(C(=O)N4CCC(CN5CCN(c6nccc(NC7CCC(=O)NC7=O)n6)CC5)CC4)cc3)CC2)cc2c(-c3ccc4[nH]ncc4c3)ccnc21 (stereo not shown) [Example 2k2, 3-((2-(4-((1-(4-(1-((4-(1H-indazol-5-yl)-1-methyl-1H-pyrrolo[2,3-b]pyridin-2-yl)methyl)-piperidin-4-yl)benzoyl)piperidin-4-yl)methyl)piperazin-1-yl)pyrimidin-4-yl)amino)piperidine-2,6-dione]	30 to 40%
Cn1c(CN2CCC(c3ccc(C(=O)N4CCC(CN5CCN(c6ccnc(NC7CCC(=O)NC7=O)n6)CC5)CC4)cc3)CC2)cc2c(-c3ccc4[nH]ncc4c3)ccnc21 (stereo not shown) [Example 2k3, 3-((4-(4-((1-(4-(1-((4-(1H-indazol-5-yl)-1-methyl-1H-pyrrolo[2,3-b]pyridin-2-yl)methyl)-piperidin-4-yl)benzoyl)piperidin-4-yl)methyl)piperazin-1-yl)pyrimidin-2-yl)amino)piperidine-2,6-dione]	30 to 40%
Cn1c(CN2CCC(c3ccc(C(=O)N4CCC(CN5CCN(c6ncc(NC7CCC(=O)NC7=O)cc6F)CC5)CC4)cc3)CC2)cc2c(-c3ccc(N)nc3)ccnc21 (stereo not shown) [Example 2n5, 3-((6-(4-((1-(4-(1-((4-(6-aminopyridin-3-yl)-1-methyl-1H-pyrrolo[2,3-b]pyridin-2-yl)methyl)-piperidin-4-yl)benzoyl)piperidin-4-yl)methyl)piperazin-1-yl)-5-fluoropyridin-3-yl)amino)piperidine-2,6-dione]	60 to 70%

Further lines, results first:

Emax	SMILES
70 to 80%	C[C@@H](c1cc2c(-c3ccc(N)nc3)ccnc2n1C)N1CCC(c2ccc(C(=O)N3CCC(CN4CCN(c5ccc(NC6CCC(=O)NC6=O)cc5Cl)CC4)CC3)cc2)CC1 (stereo partly drawn) [Example 2i6, 3-((4-(4-((1-(4-(1-((S)-1-(4-(6-aminopyridin-3-yl)-1-methyl-1H-pyrrolo[2,3-b]pyridin-2-yl)-ethyl)piperidin-4-yl)benzoyl)piperidin-4-yl)methyl)piperazin-1-yl)-3-chlorophenyl)amino)piperidine-2,6-dione]
60 to 70%	Cn1c(CN2CCC(c3ccc(C(=O)N4CCC(CN5CCN(c6cccc(NC7CCC(=O)NC7=O)c6)CC5)CC4)cc3)CC2)cc2c(-c3ccc4[nH]ncc4c3)ccnc21 (stereo not shown) [Example 2l1, 3-((3-(4-((1-(4-(1-((4-(1H-indazol-5-yl)-1-methyl-1H-pyrrolo[2,3-b]pyridin-2-yl)methyl)-piperidin-4-yl)benzoyl)piperidin-4-yl)methyl)piperazin-1-yl)phenyl)amino)piperidine-2,6-dione]
70 to 80%	Cn1c(CN2CCC(c3ccc(C(=O)N4CCC(CN5CCN(c6ccc(NC7CCC(=O)NC7=O)c(F)n6)CC5)CC4)cc3)CC2)cc2c(-c3ccc(N)nc3)ccnc21 (stereo not shown) [Example 2n4, 3-((6-(4-((1-(4-(1-((4-(6-aminopyridin-3-yl)-1-methyl-1H-pyrrolo[2,3-b]pyridin-2-yl)methyl)-piperidin-4-yl)benzoyl)piperidin-4-yl)methyl)piperazin-1-yl)-2-fluoropyridin-3-yl)amino)piperidine-2,6-dione]
